Where “and” joins values, the source holds several entries; their conditions need not be identical. Equal values may be shown once. Toxic doses and inconclusive results are not listed. The calls were made as follows: active = survival T/C of 150% or more; inactive = T/C below 125% in these data.
System: P388 leukemia ip, CD2F1 mice, survival T/C
Experiment: NCI In Vivo Anticancer Drug Screen. Data for tumor model P388 Leukemia (intraperitoneal) in CD2F1 (CDF1) mice
Details: endpoint: median survival time, higher = longer survival
In short: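 Mice carrying the transplanted tumor received test compound or vehicle. Survival was recorded in each group, and the value is the treated-group measurement divided by that of the vehicle-treated control group.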

[1] = dose: 3.13 mg/kg/injection, schedule: Q01DX009 (ip), vehicle: other
[2] = dose: 6.25 mg/kg/injection, schedule: Q01DX009 (ip), vehicle: other
[3] = dose: 12.5 mg/kg/injection, schedule: Q01DX009 (ip), vehicle: other
[4] = dose: 25.0 mg/kg/injection, schedule: Q01DX009 (ip), vehicle: other
[5] = dose: 12.5 mg/kg/injection, schedule: Q01DX009 (ip), vehicle: saline with Tween-80
[6] = dose: 25.0 mg/kg/injection, schedule: Q01DX009 (ip), vehicle: saline with Tween-80
[7] = dose: 50.0 mg/kg/injection, schedule: Q01DX009 (ip), vehicle: saline with Tween-80
[8] = dose: 100.0 mg/kg/injection, schedule: Q01DX009 (ip), vehicle: saline with Tween-80
[9] = dose: 200.0 mg/kg/injection, schedule: Q01DX009 (ip), vehicle: saline with Tween-80
[10] = dose: 400.0 mg/kg/injection, schedule: Q01DX009 (ip), vehicle: saline with Tween-80
[11] = dose: 60.0 mg/kg/injection, schedule: Q01DX005 (ip), vehicle: Klucel (hydroxypropylcellulose) (HPC)
[12] = dose: 120.0 mg/kg/injection, schedule: Q01DX005 (ip), vehicle: Klucel (hydroxypropylcellulose) (HPC)
[13] = dose: 6.25 mg/kg/injection, schedule: Q01DX009 (ip), vehicle: saline with Tween-80
[14] = dose: 240.0 mg/kg/injection, schedule: Q01DX005 (ip), vehicle: Klucel (hydroxypropylcellulose) (HPC)

Measured: T/C

CC1(C)CC(OP(=O)(N(CCCl)CCCl)N2CC2)CC(C)(C)N1O (stereo unspecified)
inactive: dose: 13.0 mg/kg/injection, schedule: Q01DX009 (ip), vehicle: saline + alcohol 102 % of control | dose: 25.0 mg/kg/injection, schedule: Q01DX009 (ip), vehicle: saline + alcohol 102 % of control | dose: 50.0 mg/kg/injection, schedule: Q01DX009 (ip), vehicle: saline + alcohol 114 % of control

COc1cccc2c1C(=O)c1c(O)c3c(c(O)c1C2=O)CC(O)(c1csc(C)n1)CC3O (stereo unspecified)
inactive: dose: 1.56 mg/kg/injection, schedule: Q01DX009 (ip), vehicle: other 105 % of control | [1] 96 % of control | [2] 100 % of control | [3] 100 % of control | [4] 99 % of control and 107 % of control | dose: 50.0 mg/kg/injection, schedule: Q01DX009 (ip), vehicle: other 108 % of control | dose: 100.0 mg/kg/injection, schedule: Q01DX009 (ip), vehicle: other 107 % of control

O=C(O)/C(=C\c1c(Cl)[nH]c2ccccc12)NC(=O)c1ccccc1
inactive: dose: 100.0 mg/kg/injection, schedule: Q01DX001 (ip), vehicle: saline with Tween-80 103 % of control | dose: 200.0 mg/kg/injection, schedule: Q01DX001 (ip), vehicle: saline with Tween-80 99 % of control | dose: 400.0 mg/kg/injection, schedule: Q01DX001 (ip), vehicle: saline with Tween-80 98 % of control

NC1C2CC3CC(C2)CC1(N)C3 (stereo unspecified)
inactive: [5] 104 % of control | [6] 102 % of control | [7] 101 % of control and 96 % of control | [8] 99 % of control | [9] 99 % of control

O=C(O)C(Cc1ccccc1)NSc1ccccc1[N+](=O)[O-] (stereo unspecified)
inactive: dose: 25.0 mg/kg/injection, schedule: Q01DX009 (ip), vehicle: distilled water + Tween-80 98 % of control and 100 % of control | dose: 50.0 mg/kg/injection, schedule: Q01DX009 (ip), vehicle: distilled water + Tween-80 107 % of control | dose: 100.0 mg/kg/injection, schedule: Q01DX009 (ip), vehicle: distilled water + Tween-80 100 % of control and 116 % of control | dose: 200.0 mg/kg/injection, schedule: Q01DX009 (ip), vehicle: distilled water + Tween-80 109 % of control

CCOc1cc(C)c(CC2NC(=O)NC2=O)cc1C(C)C (stereo unspecified)
inactive: dose: 100.0 mg/kg/injection, schedule: Q04DX003 (ip), vehicle: suspension in saline 100 % of control | dose: 200.0 mg/kg/injection, schedule: Q04DX003 (ip), vehicle: suspension in saline 100 % of control | dose: 400.0 mg/kg/injection, schedule: Q04DX003 (ip), vehicle: suspension in saline 88 % of control

COc1ccc2ccc(/C=C/[N+](=O)[O-])cc2c1OC
inactive: [1] 109 % of control | [2] 108 % of control | [3] 110 % of control | [4] 106 % of control

Fc1ccc(N/N=c2\nnc3ccc(F)cc3s2)cc1
inactive: dose: 100.0 mg/kg/injection, schedule: Q04DX002 (ip), vehicle: saline with Tween-80 102 % of control | dose: 200.0 mg/kg/injection, schedule: Q04DX002 (ip), vehicle: saline with Tween-80 95 % of control | dose: 400.0 mg/kg/injection, schedule: Q04DX002 (ip), vehicle: saline with Tween-80 94 % of control

[Cl][Pt+2][Cl].[NH-]C1CCCC2CCC[N-]C12 (stereo unspecified)
active: [7] 154 % of control | [9] 174 % of control and 184 % of control | [10] 176 % of control

COc1ccc(NC(=S)Nc2ccc(OCCCN3CCOCC3)cc2)cc1
inactive: dose: 100.0 mg/kg/injection, schedule: Q04DX002 (ip), vehicle: Klucel (hydroxypropylcellulose) (HPC) 96 % of control | dose: 200.0 mg/kg/injection, schedule: Q04DX002 (ip), vehicle: Klucel (hydroxypropylcellulose) (HPC) 94 % of control | dose: 400.0 mg/kg/injection, schedule: Q04DX002 (ip), vehicle: Klucel (hydroxypropylcellulose) (HPC) 94 % of control

CC1=CC(=C2C(=O)c3ccccc3C2=O)C=C(C)N1CCN1CCCCC1
inactive: dose: 50.0 mg/kg/injection, schedule: Q01DX005 (ip), vehicle: saline 98 % of control | [11] 90 % of control | dose: 100.0 mg/kg/injection, schedule: Q01DX005 (ip), vehicle: saline 99 % of control | [12] 95 % of control

CC(=O)OCC(=O)[C@@]1(O)CC[C@H]2[C@@H]3CCC4=CC(=O)CC[C@]4(C)[C@@]3(Cl)[C@@H](O)C[C@@]21C
inactive: dose: 88.0 mg/kg/injection, schedule: Q04DX003 (ip), vehicle: saline with Tween-80 123 % of control | [8] 118 % of control | dose: 132.0 mg/kg/injection, schedule: Q04DX003 (ip), vehicle: saline with Tween-80 123 % of control | [9] 90 % of control | dose: 200.0 mg/kg/injection, schedule: Q04DX003 (ip), vehicle: saline with Tween-80 114 % of control | dose: 300.0 mg/kg/injection, schedule: Q04DX003 (ip), vehicle: saline with Tween-80 123 % of control | [10] 100 % of control | dose: 400.0 mg/kg/injection, schedule: Q04DX003 (ip), vehicle: saline with Tween-80 109 % of control

O=S1(=O)C[CH-]C1.[C-]#[O+].[C-]#[O+].[C-]#[O+].[W].[c-]1[c-][c-][cH-][c-]1
inactive: dose: 0.78 mg/kg/injection, schedule: Q01DX009 (ip), vehicle: saline with Tween-80 98 % of control | dose: 1.56 mg/kg/injection, schedule: Q01DX009 (ip), vehicle: saline with Tween-80 93 % of control | dose: 3.13 mg/kg/injection, schedule: Q01DX009 (ip), vehicle: saline with Tween-80 94 % of control | [13] 93 % of control

C=C(C#N)C(NC(C)(C)C)c1ccccc1 (stereo unspecified)
inactive: dose: 12.5 mg/kg/injection, schedule: Q01DX001 (ip), vehicle: saline 96 % of control | dose: 25.0 mg/kg/injection, schedule: Q01DX001 (ip), vehicle: saline 100 % of control | dose: 50.0 mg/kg/injection, schedule: Q01DX001 (ip), vehicle: saline 115 % of control

Cc1ccccc1-n1c(SCC(=O)NC(=O)Nc2cccc(Cl)c2)nc2c(Br)cc(Br)cc2c1=O
inactive: [11] 99 % of control | [12] 101 % of control | [14] 87 % of control

COc1cc2c(cc1OC)C13CC(=O)N(C(C)=O)N1CCCN3C2=O (stereo unspecified)
inactive: dose: 30.0 mg/kg/injection, schedule: Q01DX005 (ip), vehicle: Klucel (hydroxypropylcellulose) (HPC) 106 % of control | [11] 97 % of control | [12] 91 % of control and 97 % of control | [14] 88 % of control

CC[n+]1c2ccc(C)cc2nc2c3ccccc3c(N)cc21
inactive: dose: 5.0 mg/kg/injection, schedule: Q01DX009 (ip), vehicle: saline 110 % of control | dose: 10.0 mg/kg/injection, schedule: Q01DX009 (ip), vehicle: saline 106 % of control | dose: 20.0 mg/kg/injection, schedule: Q01DX009 (ip), vehicle: saline 99 % of control

CCOC(=O)C1CCC/C1=N/Nc1ccc([N+](=O)[O-])cc1[N+](=O)[O-] (stereo unspecified)
inactive: dose: 100.0 mg/kg/injection, schedule: Q01DX001 (ip), vehicle: Klucel (hydroxypropylcellulose) (HPC) 94 % of control | dose: 200.0 mg/kg/injection, schedule: Q01DX001 (ip), vehicle: Klucel (hydroxypropylcellulose) (HPC) 93 % of control | dose: 400.0 mg/kg/injection, schedule: Q01DX001 (ip), vehicle: Klucel (hydroxypropylcellulose) (HPC) 93 % of control

Cc1c(C)c(Cl)c(C)c(C)c1Cl
inactive: dose: 5.0 mg/kg/injection, schedule: Q01DX009 (ip), vehicle: saline with Tween-80 95 % of control | dose: 10.0 mg/kg/injection, schedule: Q01DX009 (ip), vehicle: saline with Tween-80 100 % of control | dose: 20.0 mg/kg/injection, schedule: Q01DX009 (ip), vehicle: saline with Tween-80 100 % of control

CCC(C)(S)CN (stereo unspecified)
inactive: dose: 100.0 mg/kg/injection, schedule: Q01DX001 (ip), vehicle: saline 90 % of control | dose: 200.0 mg/kg/injection, schedule: Q01DX001 (ip), vehicle: saline 90 % of control | dose: 400.0 mg/kg/injection, schedule: Q01DX001 (ip), vehicle: saline 92 % of control

COc1ccc(OC)c(N2C(=O)C=C(C)C2(O)CC#N)c1 (stereo unspecified)
inactive: [13] 100 % of control | [5] 95 % of control | [6] 98 % of control | [7] 98 % of control

C=CCc1ccc(OC(=O)Nc2ccc(C)cc2[N+](=O)[O-])c(OC)c1
inactive: [7] 88 % of control | [8] 88 % of control | [9] 95 % of control

COc1cccc(NCNC2Nc3ccccc3N2)c1
inactive: dose: 15.0 mg/kg/injection, schedule: Q01DX005 (ip), vehicle: saline with Tween-80 106 % of control | dose: 30.0 mg/kg/injection, schedule: Q01DX005 (ip), vehicle: saline with Tween-80 107 % of control | dose: 60.0 mg/kg/injection, schedule: Q01DX005 (ip), vehicle: saline with Tween-80 107 % of control

— PubChem BioAssay AID330 (DTP/NCI, 2004)
